Reference: US6525001B1, “Substituted pyrimidine and pyridine herbicides” (Mid-American Commercialization Corporation, priority 1997, dated 2003)

How the values were obtained:
Format in all cases: in vivo
[1] = system: cocklebur (Xanthium strumarium); assay: Test C; parameters: key: 0 was no effect; 100 was complete control; details: PREEMERGENCE
[2] = system: common ragweed (Ambrosia elatior); assay: Test C; parameters: key: 0 was no effect; 100 was complete control; details: PREEMERGENCE
[3] = system: fall panicum (Panicum dichotomiflorum); assay: Test C; parameters: key: 0 was no effect; 100 was complete control; details: PREEMERGENCE
[4] = system: field bindweed (Convolvulus arvensis); assay: Test C; parameters: key: 0 was no effect; 100 was complete control; details: PREEMERGENCE
[5] = system: hairy beggarticks (Bidens pilosa); assay: Test C; parameters: key: 0 was no effect; 100 was complete control; details: PREEMERGENCE
[6] = system: johnsongrass (Sorghum halepense); assay: Test C; parameters: key: 0 was no effect; 100 was complete control; details: PREEMERGENCE
[7] = system: lambsquarters (Chenopodium album); assay: Test C; parameters: key: 0 was no effect; 100 was complete control; details: PREEMERGENCE
[8] = system: large crabgrass (Digitaria sanguinalis); assay: Test C; parameters: key: 0 was no effect; 100 was complete control; details: PREEMERGENCE
[9] = system: velvetleaf (Abutilon theophrasti); assay: Test C; parameters: key: 0 was no effect; 100 was complete control; details: PREEMERGENCE
[10] = system: wild poinsettia (Euphorbia heterophylla); assay: Test C; parameters: key: 0 was no effect; 100 was complete control; details: PREEMERGENCE
[11] = system: purple nutsedge (Cyperus rotundus); assay: Test E pre-/postemergence/post directed; parameters: key: 0 is no injury; 100 is complete control
Excerpt: (§1) Seeds, tubers, or plant parts of alexandergrass (Brachiaria plantaginea), annual bluegrass (Poa annua), arrowleaf sida (Sida rhombifolia), barnyardgrass (Echinochloa crus-galli), bermudagrass (Cynodon dactylon), citrus (Citrus sinensis), common chickweed (Stellaria media), common purslane (Portulaca oleracea), common ragweed (Ambrosia elatior), common groundsel (Senecio vulgaris), dallisgrass (Paspalum dilatatum), goosegrass (Eleusine indica), green foxtail (Setaria viridis), guineagrass (Panicum maximum), itchgrass (Rottboellia exaltata), johnson grass (Sorghum halepense), kochia (Kochia scoparia), large crabgrass (Digitaria sanguinalis), leafy spurge (Euphorbia esula), pitted morningglory (Ipomoea lacunosa), purple nutsedge (Cyperus rotundus), quackgrass (Agropyron repens), Russian thistle (Salsola kali), sandbur (Cenchrus echinatus), sourgrass (Trichachne insularis), Spanishneedles (Bidens bipinnata), sugarcane (Saccharum officinarum), surinam grass (Brachiaria decumbens) and tall mallow (Malva sylvestris) were planted into greenhouse pots of flats containing greenhouse planting medium. Plant species were grown grown in separate pots or individual compartments. Preemergence applications were made within one day of planting the seed or plant part. Postemergence applications were applied when the plants were in the two to four leaf stage (three to twenty cm).
(§2) Test chemicals were formulated in a non-phytotoxic solvent mixture which included a surfactant and applied preemergence to the soil surface, postemergence to the plants or as a post directed spray to plants and soil at the base of the target species. Untreated control plants and treated plants were placed in the greenhouse and visually evaluated for injury 13 to 21 days after herbicide application. Plant response ratings, summarized in Table E, are based on a 0 to 100 scale where 0 is no injury and 100 is complete control. A dash (−) response means no test result.

[12] = system: alexandergrass (Brachiaria plantaginea); assay: Test E pre-/postemergence/post directed
Excerpt: as §1, §2

[13] = system: common groundsel (Senecio vulgaris); assay: Test E pre-/postemergence/post directed
Excerpt: as §1, §2

[14] = system: surinam grass (Brachiaria decumbens); assay: Test E pre-/postemergence/post directed
Excerpt: as §1, §2

[15] = system: barnyardgrass (Echinochloa crus-galli); assay: Test A pre-/postemergence; parameters: key: 0 is no effect; 10 is complete control; details: 0 to 10 scale
Experimental: (§3) Seeds of barnyardgrass (Echinochloa crus-galli), crabgrass (Digitaria spp.), morningglory (Ipomoea spp.), and velvetleaf (Abutilon theophrasti) were planted into a sandy loam soil and treated preemergence by soil drench with test chemicals formulated in a non-phytotoxic solvent mixture which includes a surfactant. At the same time, these crop and weed species were also treated postemergence sprayed to runoff, with test chemicals formulated in the same manner. Plants ranged in height from two to eighteen cm and were in the one to two leaf stage for the postemergence treatment. Treated plants and untreated controls were maintained in a greenhouse for approximately eleven days, after which all treated plants were compared to untreated controls and visually evaluated for injury. Plant response ratings, summarized in Table A, are based on a 0 to 10 scale where 0 is no effect and 10 is complete control. A dash (−) response means no test results.

[16] = system: crabgrass (Digitaria spp.); assay: Test A pre-/postemergence; parameters: key: 0 is no effect; 10 is complete control; details: 0 to 10 scale
Experimental: as §3

[17] = system: morningglory (Ipomoea spp.); assay: Test A pre-/postemergence; parameters: key: 0 is no effect; 10 is complete control; details: 0 to 10 scale
Experimental: as §3

[18] = system: velvetleaf (Abutilon theophrasti); assay: Test A pre-/postemergence; parameters: key: 0 is no effect; 10 is complete control; details: 0 to 10 scale
Experimental: as §3

[19] = PRE SOIL DRENCH, Rate 2000 g/ha
[20] = postemergence SPRAYED TO RUNOFF, Rate 1000 g/ha

COc1cnc(-c2ccc(C(F)(F)F)cc2)nc1Cc1cccc(C(F)(F)F)c1 [Compound 23]
Plant response rating, Cocklebur ([1]; Rate 140 g/ha): 5 | Plant response rating, Common ragweed ([2]; Rate 35 g/ha): 10 | Plant response rating, Common ragweed ([2]; Rate 70 g/ha): 30 | Plant response rating, Common ragweed ([2]; Rate 140 g/ha): 90 | Plant response rating, Fall panicum ([3]; Rate 35 g/ha): 55 | Plant response rating, Fall panicum ([3]; Rate 70 g/ha): 100 | Plant response rating, Fall panicum ([3]; Rate 140 g/ha): 100 | Plant response rating, Field bindweed ([4]; Rate 35 g/ha): 20 | Plant response rating, Field bindweed ([4]; Rate 70 g/ha): 100 | Plant response rating, Field bindweed ([4]; Rate 140 g/ha): 100 | Plant response rating, H. beggarticks ([5]; Rate 35 g/ha): 50 | Plant response rating, H. beggarticks ([5]; Rate 70 g/ha): 50 | Plant response rating, H. beggarticks ([5]; Rate 140 g/ha): 100 | Plant response rating, Johnsongrass ([6]; Rate 35 g/ha): 5 | Plant response rating, Johnsongrass ([6]; Rate 70 g/ha): 20 | Plant response rating, Johnsongrass ([6]; Rate 140 g/ha): 80 | Plant response rating, Lambsquarters ([7]; Rate 35 g/ha): 60 | Plant response rating, Lambsquarters ([7]; Rate 70 g/ha): 100 | Plant response rating, Lambsquarters ([7]; Rate 140 g/ha): 100 | Plant response rating, Large crabgrass ([8]; Rate 35 g/ha): 100 | Plant response rating, Large crabgrass ([8]; Rate 70 g/ha): 100 | Plant response rating, Large crabgrass ([8]; Rate 140 g/ha): 100 | Plant response rating, Velvetleaf ([9]; Rate 35 g/ha): 50 | Plant response rating, Velvetleaf ([9]; Rate 140 g/ha): 50 | Plant response rating, Wild poinsettia ([10]; Rate 35 g/ha): 5 | Plant response rating, Wild poinsettia ([10]; Rate 70 g/ha): 5 | Plant response rating, Wild poinsettia ([10]; Rate 140 g/ha): 10 | Plant response rating, Purple nutsedge ([11]; POSTEMERGENCE, Rate 250 g/ha): 0 | Plant response rating, Purple nutsedge ([11]; PREEMERGENCE, Rate 32 g/ha): 0 | Plant response rating, Purple nutsedge ([11]; PREEMERGENCE, Rate 64 g/ha): 0 | Plant response rating, Purple nutsedge ([11]; PREEMERGENCE, Rate 125 g/ha): 0 | Plant response rating, Purple nutsedge ([11]; PREEMERGENCE, Rate 250 g/ha): 0 | Plant response rating, Alexandergrass ([12]; POSTEMERGENCE, Rate 250 g/ha): 80 | Plant response rating, Alexandergrass ([12]; PREEMERGENCE, Rate 125 g/ha): 85 | Plant response rating, Alexandergrass ([12]; PREEMERGENCE, Rate 250 g/ha): 98 | Plant response rating, Com. groundsel ([13]; POSTEMERGENCE, Rate 250 g/ha): 40

Cc1cnc(-n2cnc(C(F)(F)F)n2)nc1C(=O)c1cccc(C(F)(F)F)c1 [Compound 67]
Plant response rating, Purple nutsedge ([11]; PREEMERGENCE, Rate 32 g/ha): 0 | Plant response rating, Purple nutsedge ([11]; PREEMERGENCE, Rate 64 g/ha): 5 | Plant response rating, Purple nutsedge ([11]; PREEMERGENCE, Rate 125 g/ha): 5 | Plant response rating, Purple nutsedge ([11]; PREEMERGENCE, Rate 250 g/ha): 10 | Plant response rating, Alexandergrass ([12]; PREEMERGENCE, Rate 32 g/ha): 25 | Plant response rating, Alexandergrass ([12]; PREEMERGENCE, Rate 64 g/ha): 40 | Plant response rating, Alexandergrass ([12]; PREEMERGENCE, Rate 125 g/ha): 70 | Plant response rating, Alexandergrass ([12]; PREEMERGENCE, Rate 250 g/ha): 95 | Plant response rating, Com. groundsel ([13]; PREEMERGENCE, Rate 64 g/ha): 50 | Plant response rating, Com. groundsel ([13]; PREEMERGENCE, Rate 125 g/ha): 95 | Plant response rating, Surinam grass ([14]; PREEMERGENCE, Rate 32 g/ha): 35 | Plant response rating, Surinam grass ([14]; PREEMERGENCE, Rate 64 g/ha): 75 | Plant response rating, Surinam grass ([14]; PREEMERGENCE, Rate 125 g/ha): 75

Cc1cnc(-c2ccc(C(F)(F)F)cc2)nc1C(=O)c1ccc(C(F)(F)F)cc1 [Compound 74]
Plant response rating, Barnyardgrass [15, 19]: 1 | Plant response rating, Barnyardgrass [15, 20]: 5 | Plant response rating, Crabgrass [16, 19]: 7 | Plant response rating, Crabgrass [16, 20]: 8 | Plant response rating, Morningglory [17, 19]: 1 | Plant response rating, Morningglory [17, 20]: 10 | Plant response rating, Velvetleaf [18, 19]: 4 | Plant response rating, Velvetleaf [18, 20]: 5

Cc1cnc(-c2ccc(C(F)(F)F)cc2)nc1Cc1cccc(C(F)(F)F)c1 [Example 1, 5-methyl-2-[4-(trifluoromethyl)phenyl]-4-[[3-(trifluoromethyl)phenyl]methyl]pyrimidine]
Plant response rating, Barnyardgrass [15, 19]: 10 | Plant response rating, Barnyardgrass [15, 20]: 9 | Plant response rating, Crabgrass [16, 19]: 10 | Plant response rating, Crabgrass [16, 20]: 9 | Plant response rating, Morningglory [17, 19]: 8 | Plant response rating, Morningglory [17, 20]: 9 | Plant response rating, Velvetleaf [18, 19]: 9 | Plant response rating, Velvetleaf [18, 20]: 9 | Plant response rating, Cocklebur ([1]; Rate 35 g/ha): 0 | Plant response rating, Cocklebur ([1]; Rate 70 g/ha): 0 | Plant response rating, Cocklebur ([1]; Rate 140 g/ha): 0 | Plant response rating, Common ragweed ([2]; Rate 35 g/ha): 80 | Plant response rating, Common ragweed ([2]; Rate 70 g/ha): 100 | Plant response rating, Common ragweed ([2]; Rate 140 g/ha): 100 | Plant response rating, Fall panicum ([3]; Rate 35 g/ha): 90 | Plant response rating, Fall panicum ([3]; Rate 70 g/ha): 90 | Plant response rating, Fall panicum ([3]; Rate 140 g/ha): 95 | Plant response rating, Field bindweed ([4]; Rate 35 g/ha): 65 | Plant response rating, Field bindweed ([4]; Rate 70 g/ha): 50 | Plant response rating, Field bindweed ([4]; Rate 140 g/ha): 50 | Plant response rating, H. beggarticks ([5]; Rate 35 g/ha): 20 | Plant response rating, H. beggarticks ([5]; Rate 70 g/ha): 100 | Plant response rating, H. beggarticks ([5]; Rate 140 g/ha): 100 | Plant response rating, Johnsongrass ([6]; Rate 35 g/ha): 50 | Plant response rating, Johnsongrass ([6]; Rate 70 g/ha): 95 | Plant response rating, Johnsongrass ([6]; Rate 140 g/ha): 100 | Plant response rating, Lambsquarters ([7]; Rate 35 g/ha): 100 | Plant response rating, Lambsquarters ([7]; Rate 70 g/ha): 100 | Plant response rating, Lambsquarters ([7]; Rate 140 g/ha): 100 | Plant response rating, Large crabgrass ([8]; Rate 35 g/ha): 100 | Plant response rating, Large crabgrass ([8]; Rate 70 g/ha): 100 | Plant response rating, Large crabgrass ([8]; Rate 140 g/ha): 100 | Plant response rating, Velvetleaf ([9]; Rate 35 g/ha): 20 | Plant response rating, Velvetleaf ([9]; Rate 70 g/ha): 75 | Plant response rating, Velvetleaf ([9]; Rate 140 g/ha): 100 | Plant response rating, Wild poinsettia ([10]; Rate 35 g/ha): 0 | Plant response rating, Wild poinsettia ([10]; Rate 70 g/ha): 10 | Plant response rating, Wild poinsettia ([10]; Rate 140 g/ha): 50 | Plant response rating, Purple nutsedge ([11]; POSTEMERGENCE, Rate 250 g/ha): 0 | Plant response rating, Purple nutsedge ([11]; PREEMERGENCE, Rate 32 g/ha): 0 | Plant response rating, Purple nutsedge ([11]; PREEMERGENCE, Rate 64 g/ha): 0 | Plant response rating, Purple nutsedge ([11]; PREEMERGENCE, Rate 125 g/ha): 0 | Plant response rating, Purple nutsedge ([11]; PREEMERGENCE, Rate 250 g/ha): 50 | Plant response rating, Alexandergrass ([12]; POSTEMERGENCE, Rate 250 g/ha): 90 | Plant response rating, Alexandergrass ([12]; PREEMERGENCE, Rate 32 g/ha): 10 | Plant response rating, Alexandergrass ([12]; PREEMERGENCE, Rate 64 g/ha): 75 | Plant response rating, Alexandergrass ([12]; PREEMERGENCE, Rate 125 g/ha): 90 | Plant response rating, Com. groundsel ([13]; POSTEMERGENCE, Rate 250 g/ha): 75 | Plant response rating, Com. groundsel ([13]; PREEMERGENCE, Rate 32 g/ha): 98 | Plant response rating, Surinam grass ([14]; POSTEMERGENCE, Rate 250 g/ha): 30 | Plant response rating, Surinam grass ([14]; PREEMERGENCE, Rate 32 g/ha): 65 | Plant response rating, Surinam grass ([14]; PREEMERGENCE, Rate 64 g/ha): 35 | Plant response rating, Surinam grass ([14]; PREEMERGENCE, Rate 125 g/ha): 98
